Article PMC8342458, “GluN2A and GluN2B NMDA receptors use distinct allosteric routes” (Nature Communications, 2021)
“And” between values parts separate entries of the source, which are not always exact repeats. Equal values may be shown once. Read-outs that look alike come from different tables or passages of the source.

What was measured:
[1] = molecular target: T1, GluN1-K178AzF/GluN2A receptors (Rattus norvegicus, UniProt P35439+Q00959); experiment: TEVC recordings in Xenopus oocytes, modulator sensitivity before and after UV photocrosslinking; type: cell-based; details: read-out: Zn2+ IC50
T1 construct: For full-length multimeric membrane-embedded receptors studied in cellulo, as done in the present work; expressed in transfected cells; host or cells: Xenopus laevis oocytes, co-injected with amber suppressor tRNA (Yam) and AzF-RS
Protocol: (§1) The pcDNA3-based expression plasmids for rat GluN1-1a (named GluN1 herein), rat GluN2A, and mouse GluN2B (also known as ε2) subunits, Pfu-based site-directed mutagenesis strategy, and sequencing procedure have been described previously[68],[69]. Incorporation of the unnatural amino acids (UAAs) AzF and BzF into NMDARs was performed using the genetic code expansion methodology as previously described[52],[53],[83]. The plasmid pSVB.Yam carrying the gene encoding the amber suppressor tRNA derived from B. stearothermophilus Tyr-tRNACUA, while the aminoacyl-tRNA synthetases (aaRS) construction for AzF and BzF derived from E. coli TyrRS[84],[85].
(§2) Recombinant NMDARs were expressed in Xenopus laevis oocytes after nuclear injection of 36 nl of a mixture of cDNAs (at 10–30 ng/μl) encoding various GluN1 and GluN2 subunits (ratio 1:1). Oocytes were prepared, injected, incubated, and voltage-clamped as described previously. For UAA incorporation, oocytes were co-injected with 36 nl of a cDNA mixture encoding for of GluN1, GluN2, Yam, and aaRS as follows, unless otherwise indicated in the text: GluN1-K178amber (120 ng/μl), GluN2A (80 ng/µl) or GluN2B (120 ng/μl), Yam (10 ng/μl), AzF-RS (5 ng/μl). After injection, oocytes were incubated at 19 °C in a Barth solution containing (in mM) 88 NaCl, 1 KCl, 0.33 Ca(NO3)2, 0.41 CaCl2, 0.82 MgSO4, 2.4 NaHCO3, 10 HEPES (pH adjusted to 7.6 with NaOH) supplemented with gentamicin ([…]) and the NMDAR glutamate binding site competitive antagonist D-APV (50 μM). AzF and BzF were added to the incubation medium at final concentrations of 1 mM and 2 mM, respectively.
(§3) For all experiments, except those on pH and spermine sensitivity, the standard external solution contained (in mM): 100 NaCl, 0.3 BaCl2, and 5 HEPES (pH adjusted to 7.3 with KOH). […] For the pH and spermine sensitivity experiments, an external solution enriched in HEPES was used to insure proper pH buffering. Unless otherwise mentioned, NMDAR-mediated currents were induced by simultaneously applications of saturating concentrations of glutamate and glycine (100 μM each). Glutamate and glycine dose-response curves (DRC) were performed in the presence of 100 µM glycine and 100 µM glutamate, respectively. Recordings were performed at a holding potential of −60 mV and at room temperature. Data were collected and analyzed using Clampex 10.5 and Clampfit 10.5 (Molecular Devices), respectively, and fitted using KaleidaGraph 4.0 (Synergy software).
(§4) EC50 and nH were fitted as free parameters. […] For proton DRC, corrections for small shifts in the reference potential of bath electrodes and analysis of the data were performed as previously described. Spermine experiments were performed and analyzed as previously described. In brief, spermine sensitivity was assessed at pH 6.5 and at a holding potential of −30 mV to maximize the spermine induced potentiation. […] EC50, a and nH were set as free parameters. MK-801 is an NMDAR open channel blocker with slow reversibility and, consequently, the rate at which MK-801 inhibits NMDAR responses depends on the level of channel activity, that is, channel open probability (Po). Based on this principle, MK-801 is classically used to estimate the level of NMDAR channel activity in macroscopic whole-cell recordings[36],[47],[56],[86],[87]. Note, however, that MK- 801 inhibition kinetics can index relative, not absolute, Po. MK-801 solutions (10 nM for GluN2A-containing receptors and 50 nM for GluN2B-containing receptors) were prepared by dilution of a stock solution (50 mM) into the agonist containing solutions. MK-801 time constants of inhibition (τon) were obtained by fitting currents with a single-exponential component to a time window corresponding to 10–90% of maximum inhibition. On-rate (kon) constants were then calculated assuming a pseudo first-order reaction scheme: kon = 1 / ([MK-801]*τon).

[2] = molecular target: T2, GluN1-K178AzF/GluN2A receptors (Rattus norvegicus, UniProt P35439+Q00959, K178F); experiment: as above; type: cell-based; details: for Izn/Io 1 nM: 1 nM zinc; for Izn/Io 10 nM: 10 nM zinc; for Izn/Io 1000 nM: 1000 nM zinc
T2 construct: For full-length multimeric membrane-embedded receptors studied in cellulo, as done in the present work; expressed in transfected cells; host or cells: Xenopus laevis oocytes, co-injected with amber suppressor tRNA (Yam) and AzF-RS
T2 sequence (Q00959 23-1464, other chains not shown): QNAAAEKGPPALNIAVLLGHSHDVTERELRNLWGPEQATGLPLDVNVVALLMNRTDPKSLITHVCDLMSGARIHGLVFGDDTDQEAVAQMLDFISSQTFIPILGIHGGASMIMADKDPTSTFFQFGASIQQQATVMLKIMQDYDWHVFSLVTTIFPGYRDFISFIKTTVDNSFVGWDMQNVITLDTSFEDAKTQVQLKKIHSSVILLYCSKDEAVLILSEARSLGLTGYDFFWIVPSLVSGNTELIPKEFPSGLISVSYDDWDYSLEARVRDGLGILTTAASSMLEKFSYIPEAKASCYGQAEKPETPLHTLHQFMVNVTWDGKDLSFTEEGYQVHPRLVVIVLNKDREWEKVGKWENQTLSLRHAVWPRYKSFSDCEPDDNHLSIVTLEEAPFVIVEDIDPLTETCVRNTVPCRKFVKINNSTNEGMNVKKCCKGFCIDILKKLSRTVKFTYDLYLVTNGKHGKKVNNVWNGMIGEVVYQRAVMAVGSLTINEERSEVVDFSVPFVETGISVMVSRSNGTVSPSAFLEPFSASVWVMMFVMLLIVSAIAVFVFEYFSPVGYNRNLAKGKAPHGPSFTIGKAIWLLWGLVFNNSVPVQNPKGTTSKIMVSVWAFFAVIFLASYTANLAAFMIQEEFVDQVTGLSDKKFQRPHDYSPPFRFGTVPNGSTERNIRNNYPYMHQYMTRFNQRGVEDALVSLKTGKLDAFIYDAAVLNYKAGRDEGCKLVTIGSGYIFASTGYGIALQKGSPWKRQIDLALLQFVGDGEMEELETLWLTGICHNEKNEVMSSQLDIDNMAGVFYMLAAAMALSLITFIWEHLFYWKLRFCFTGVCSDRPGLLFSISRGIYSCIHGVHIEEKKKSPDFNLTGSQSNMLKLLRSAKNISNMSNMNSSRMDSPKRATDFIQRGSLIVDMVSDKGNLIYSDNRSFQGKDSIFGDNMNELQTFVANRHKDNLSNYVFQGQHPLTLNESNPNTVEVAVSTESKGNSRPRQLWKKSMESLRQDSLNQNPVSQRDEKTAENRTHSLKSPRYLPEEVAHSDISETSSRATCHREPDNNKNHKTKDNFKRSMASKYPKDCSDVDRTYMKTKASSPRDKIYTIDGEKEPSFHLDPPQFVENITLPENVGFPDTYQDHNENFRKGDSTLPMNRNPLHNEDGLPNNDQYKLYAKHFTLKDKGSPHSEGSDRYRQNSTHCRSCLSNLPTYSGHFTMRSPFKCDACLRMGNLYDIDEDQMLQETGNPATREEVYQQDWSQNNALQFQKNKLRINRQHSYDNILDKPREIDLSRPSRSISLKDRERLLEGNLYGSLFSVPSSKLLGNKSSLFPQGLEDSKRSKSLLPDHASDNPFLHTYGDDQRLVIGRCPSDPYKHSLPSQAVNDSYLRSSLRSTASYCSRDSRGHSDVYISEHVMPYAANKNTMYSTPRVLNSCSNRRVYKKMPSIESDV
Protocol: as §1, §2, §3, §4

[3] = molecular target: T3, wild-type (wt) GluN1/GluN2B receptors (UniProt P35439+Q01097); experiment: TEVC recordings in Xenopus oocytes, allosteric modulator sensitivity; type: cell-based, rat (GluN1), mouse (GluN2B)
T3 construct: For full-length multimeric membrane-embedded receptors studied in cellulo, as done in the present work; expressed in transfected cells; host or cells: Xenopus laevis oocytes (nuclear cDNA injection, pcDNA3 plasmids)
Protocol: as §1, §2, §3, §4

[4] = molecular target: T4, GluN1/GluN2A-V217C receptors (Rattus norvegicus, UniProt P35439+Q00959, V217C); experiment: TEVC recordings in Xenopus oocytes, zinc inhibition dose-response; type: cell-based
T4 construct: For full-length multimeric membrane-embedded receptors studied in cellulo, as done in the present work; expressed in transfected cells; host or cells: Xenopus laevis oocytes
T4 sequence (Q00959 23-1464 V217C, other chains not shown): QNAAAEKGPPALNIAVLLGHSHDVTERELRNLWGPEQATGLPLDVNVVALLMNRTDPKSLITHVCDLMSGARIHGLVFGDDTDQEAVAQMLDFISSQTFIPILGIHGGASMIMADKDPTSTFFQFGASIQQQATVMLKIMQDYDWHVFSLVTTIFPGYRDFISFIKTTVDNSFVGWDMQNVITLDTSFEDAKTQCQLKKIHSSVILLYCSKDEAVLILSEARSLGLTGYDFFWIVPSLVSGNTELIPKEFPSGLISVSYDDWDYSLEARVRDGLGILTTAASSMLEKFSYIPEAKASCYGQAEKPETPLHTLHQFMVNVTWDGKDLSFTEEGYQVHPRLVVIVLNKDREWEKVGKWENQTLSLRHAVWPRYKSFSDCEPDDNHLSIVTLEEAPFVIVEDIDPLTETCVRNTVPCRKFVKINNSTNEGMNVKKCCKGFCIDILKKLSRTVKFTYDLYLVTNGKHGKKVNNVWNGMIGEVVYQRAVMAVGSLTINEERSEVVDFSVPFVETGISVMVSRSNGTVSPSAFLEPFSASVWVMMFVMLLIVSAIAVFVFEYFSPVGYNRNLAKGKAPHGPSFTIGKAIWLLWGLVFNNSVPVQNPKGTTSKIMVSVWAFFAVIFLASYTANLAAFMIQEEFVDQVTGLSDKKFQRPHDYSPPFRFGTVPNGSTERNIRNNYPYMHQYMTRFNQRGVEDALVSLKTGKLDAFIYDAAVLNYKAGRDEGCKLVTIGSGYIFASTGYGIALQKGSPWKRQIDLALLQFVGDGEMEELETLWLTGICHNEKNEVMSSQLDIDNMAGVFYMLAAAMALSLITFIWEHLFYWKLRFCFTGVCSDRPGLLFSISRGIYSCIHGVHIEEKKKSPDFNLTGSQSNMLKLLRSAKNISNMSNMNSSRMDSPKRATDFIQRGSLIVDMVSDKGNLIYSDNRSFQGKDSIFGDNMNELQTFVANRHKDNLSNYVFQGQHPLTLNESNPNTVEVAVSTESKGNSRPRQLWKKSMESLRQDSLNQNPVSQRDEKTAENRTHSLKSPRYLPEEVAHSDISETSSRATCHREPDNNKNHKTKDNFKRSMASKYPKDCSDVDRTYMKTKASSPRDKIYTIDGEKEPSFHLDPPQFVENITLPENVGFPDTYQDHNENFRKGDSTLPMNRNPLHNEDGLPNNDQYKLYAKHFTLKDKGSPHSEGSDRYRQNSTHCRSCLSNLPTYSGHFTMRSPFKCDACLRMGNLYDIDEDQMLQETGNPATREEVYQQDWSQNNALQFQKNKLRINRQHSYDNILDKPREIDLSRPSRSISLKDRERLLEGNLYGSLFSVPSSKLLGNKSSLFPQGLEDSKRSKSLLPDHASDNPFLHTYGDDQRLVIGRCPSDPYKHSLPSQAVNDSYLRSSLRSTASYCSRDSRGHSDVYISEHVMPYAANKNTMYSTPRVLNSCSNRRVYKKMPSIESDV
Protocol: as §1, §2, §3, §4

[5] = molecular target: T5, GluN1-L777C/GluN2B-E517C-L781C receptors (UniProt P35439+Q01097, E517C/L777C/L781C/N521C); experiment: TEVC recordings in Xenopus oocytes, zinc and ifenprodil inhibition dose-response; type: cell-based, rat (GluN1), mouse (GluN2B); details: read-out: Zn2+ IC50
T5 construct: For full-length multimeric membrane-embedded receptors studied in cellulo, as done in the present work; expressed in transfected cells; host or cells: Xenopus laevis oocytes
Protocol: as §1, §2, §3, §4

[6] = molecular target: T6, GluN1-N521C-L777C/GluN2A-E516C-L780C (CC/CC) receptors (Rattus norvegicus, UniProt P35439+Q00959, E516C/L777C/L780C/N521C); experiment: TEVC recordings in Xenopus oocytes, zinc sensitivity; type: cell-based
T6 construct: For full-length multimeric membrane-embedded receptors studied in cellulo, as done in the present work; expressed in transfected cells; host or cells: Xenopus laevis oocytes
T6 sequence (Q00959 23-1464 E516C/L780C, other chains not shown): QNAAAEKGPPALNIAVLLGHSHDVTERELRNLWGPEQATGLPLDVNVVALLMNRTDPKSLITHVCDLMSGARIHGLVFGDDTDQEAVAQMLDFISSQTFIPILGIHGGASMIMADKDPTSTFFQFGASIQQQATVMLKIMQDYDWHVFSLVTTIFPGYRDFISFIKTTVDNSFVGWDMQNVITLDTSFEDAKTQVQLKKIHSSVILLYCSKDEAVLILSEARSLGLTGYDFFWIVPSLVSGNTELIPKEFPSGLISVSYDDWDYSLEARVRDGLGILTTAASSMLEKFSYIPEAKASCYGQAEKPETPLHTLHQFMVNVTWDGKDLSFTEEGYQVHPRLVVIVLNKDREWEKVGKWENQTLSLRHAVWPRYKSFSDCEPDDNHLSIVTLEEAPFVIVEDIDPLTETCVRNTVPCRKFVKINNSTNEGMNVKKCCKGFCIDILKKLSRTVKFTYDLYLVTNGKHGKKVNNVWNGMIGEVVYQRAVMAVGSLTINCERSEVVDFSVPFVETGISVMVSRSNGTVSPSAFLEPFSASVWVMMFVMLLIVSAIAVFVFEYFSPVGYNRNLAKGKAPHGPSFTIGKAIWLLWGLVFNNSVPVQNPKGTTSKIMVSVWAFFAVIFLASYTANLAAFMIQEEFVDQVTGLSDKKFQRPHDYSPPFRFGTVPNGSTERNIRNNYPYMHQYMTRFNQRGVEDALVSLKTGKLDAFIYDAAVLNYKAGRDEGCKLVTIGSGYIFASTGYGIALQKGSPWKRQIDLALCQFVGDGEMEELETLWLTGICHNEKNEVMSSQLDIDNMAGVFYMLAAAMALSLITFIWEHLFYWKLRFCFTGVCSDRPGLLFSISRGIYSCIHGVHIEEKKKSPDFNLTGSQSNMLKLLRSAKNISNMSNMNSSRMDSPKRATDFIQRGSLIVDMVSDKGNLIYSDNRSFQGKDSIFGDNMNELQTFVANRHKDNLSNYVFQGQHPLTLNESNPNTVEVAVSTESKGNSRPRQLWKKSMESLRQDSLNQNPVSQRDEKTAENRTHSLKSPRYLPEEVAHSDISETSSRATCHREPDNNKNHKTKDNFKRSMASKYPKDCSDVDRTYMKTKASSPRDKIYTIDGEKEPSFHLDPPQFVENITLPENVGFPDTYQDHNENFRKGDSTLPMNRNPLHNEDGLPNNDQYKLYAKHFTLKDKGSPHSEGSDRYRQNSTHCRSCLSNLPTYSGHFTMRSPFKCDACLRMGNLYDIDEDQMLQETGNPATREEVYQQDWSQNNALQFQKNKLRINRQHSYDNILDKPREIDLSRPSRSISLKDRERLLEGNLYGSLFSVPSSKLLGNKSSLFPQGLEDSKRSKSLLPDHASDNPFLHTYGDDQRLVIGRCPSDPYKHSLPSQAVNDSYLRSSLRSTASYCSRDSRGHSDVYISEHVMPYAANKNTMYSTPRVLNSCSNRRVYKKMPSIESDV
Protocol: as §1, §2, §3, §4

[Zn+2] [zinc]
IC50 ([1]; after UV): 7.69 ± 0.17 nM
IC50 ([1]; before UV): 7.43 ± 1.1 nM
Izn/Io 1 nM ([2]; +UV): 0.94 ± 0.01
Izn/Io 1 nM ([2]; -UV): 0.91 ± 0.02
Izn/Io 10 nM ([2]; +UV): 0.70 ± 0.02
Izn/Io 10 nM ([2]; -UV): 0.60 ± 0.01
Izn/Io 1000 nM ([2]; +UV): 0.48 ± 0.04
Izn/Io 1000 nM ([2]; -UV): 0.30 ± 0.03
Zn2+ Hill slope (nH) ([2]; after UV): 1.05 ± 0.07
Zn2+ maximal inhibition ([2]; after UV): 0.52 ± 0.04
Zn2+ Hill slope (nH) ([2]; before UV): 0.99 ± 0.09
Zn2+ maximal inhibition ([2]; before UV): 0.70 ± 0.03
Zn2+ Hill slope (nH) [3]: 1.08 ± 0.04 and 1.20 ± 0.04 and 0.96 ± 0.10
Izn/Io 0.1 μM ([3]; 0.1 μM zinc): 0.80 ± 0.02 and 0.87 ± 0.02 and 0.78 ± 0.01
Izn/Io 0.3 μM ([3]; 0.3 μM zinc): 0.54 ± 0.03
Izn/Io 1 μM ([3]; 1 μM zinc): 0.39 ± 0.005 and 0.46 ± 0.03 and 0.37 ± 0.03
Izn/Io 3 μM ([3]; 3 μM zinc): 0.18 ± 0.09
IC50 ([3]; read-out: Zn2+ IC50): 720 nM and 970 nM and 590 nM
Zn2+ Hill slope (nH) [4]: 0.44 ± 0.08
maximal level of zinc inhibition [4]: 40%
Izn/Io 1 nM ([4]; 1 nM zinc): 0.86 ± 0.03
Izn/Io 10 nM ([4]; 10 nM zinc): 0.78 ± 0.03
Izn/Io 50 nM ([4]; 50 nM zinc): 0.70 ± 0.03
Izn/Io 500 nM ([4]; 500 nM zinc): 0.65 ± 0.03
Izn/Io 1000 nM ([4]; 1000 nM zinc): 0.64 ± 0.04
IC50 ([4]; read-out: Zn2+ IC50): 4.64 ± 1.78 nM
IC50 [5]: 720 ± 50 nM
Zn2+ Hill slope (nH) [6]: 0.40 ± 0.11
Zn2+ maximal inhibition [6]: 0.37 ± 0.04
Izn/Io 1 nM ([6]; 1 nM zinc): 0.86 ± 0.01
Izn/Io 5 nM ([6]; 5 nM zinc): 0.81 ± 0.02
Izn/Io 50 nM ([6]; 50 nM zinc): 0.72 ± 0.03
Izn/Io 500 nM ([6]; 500 nM zinc): 0.66 ± 0.04
Izn/Io 1000 nM ([6]; 1000 nM zinc): 0.68 ± 0.01
IC50 ([6]; read-out: Zn2+ IC50): 3.44 ± 2.03 nM
